# From patent US12495798B2, “Nicotinamide compound and herbicidal composition comprising compound” (KOREA RESEARCH INSTITUTE OF CHEMICAL TECHNOLOGY, priority 2019, dated 2025)
# Experiments:
# Assay type in all cases: in vivo
# [1] = system: black nightshade; test: Herbicidal activity test against upland field weeds (foliar treatment test); set-up: key to Foliar treatment herbicidal activity, black nightshade: 0 (no control); 100 (complete control); details: 50 g ai/ha, scale 0-100
# Summary of the method: (§1)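 Greenhouse-grown plants (30±5 °C, 14/10 h light/dark) foliar hand-sprayed with compound in 50% acetone, 0.1% Tween-20 at 50 or 75 g a.i./ha. Control visually scored 0 (none) to 100 (complete) versus untreated after 14 days, or 21 days if needed.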
# [2] = system: cocklebur; test: as above; set-up: key to Foliar treatment herbicidal activity, Cocklebur: 0 (no control); 100 (complete control); details: 50 g ai/ha, scale 0-100
# Summary of the method: as §1
# [3] = system: fall panicum; test: as above; set-up: key to Foliar treatment herbicidal activity, Fall panicum: 0 (no control); 100 (complete control); details: 50 g ai/ha, scale 0-100
# Summary of the method: as §1
# [4] = system: bindweed; test: as above; set-up: key to Foliar treatment herbicidal activity, Bindweed: 0 (no control); 100 (complete control); details: 50 g ai/ha, scale 0-100
# Summary of the method: as §1
# [5] = system: indian jointvetch; test: as above; set-up: key to Foliar treatment herbicidal activity, Indian jointvetch: 0 (no control); 100 (complete control); details: 50 g ai/ha, scale 0-100
# Summary of the method: as §1
# [6] = system: cocklebur; test: Herbicidal activity test against upland field weeds (soil treatment test); set-up: key to Soil treatment herbicidal activity, Cocklebur: 0 (no control); 100 (complete control); details: 50 g ai/ha, scale 0 (no control) to 100 (complete control)
# Protocol: Experimental Example 2: Herbicidal Activity Test Against Upland Field Weeds (Soil Treatment Test) Soil treatment was performed as follows: After filling a square plastic pot having a surface area of 350 cm^2 with sandy loam mixed with 1 g per pot (350 cm^2) of horticultural mixed fertilizer (N:P:K=11:10:11), seeds (10˜15 grains) or rootstocks (2 pieces) of 5 kinds of grassy weeds of sorghum, barnyard grass, quack grass, crabgrass, fall panicum, and 5 kinds of broadleaf weeds of black nightshade, indian jointvetch, velvetleaf, cocklebur, bindweed, which had been stored in a low temperature (6° C.), were sown. The day after sowing, test compound solutions were made by diluting with a preparation solution (including 50% acetone, 0.1% Tween-20) so that the final treatment amount of the test compounds was 50 or 75 g a.i./ha. The prepared test compound solution was used for treating soil surface by hand-spraying 14 mL per pot in a fume hood. After the treatment, it was managed under the same greenhouse conditions (average temperature 30±5° C., light/dark=14/10 hours), and after 14 days (after 21 days if necessary), the external symptoms and efficacy were investigated according to the scale of 0 (no control) to 100 (complete control). The results of Table 8 were obtained by evaluating weed control value to the untreated control by conducting visual assessment.
# [7] = system: crabgrass; test: Herbicidal activity test against upland field weeds (foliar treatment test); set-up: key to Foliar treatment herbicidal activity, Crabgrass: 0 (no control); 100 (complete control); details: 50 g ai/ha, scale 0-100
# Summary of the method: as §1
# [8] = system: sorghum; test: Herbicidal activity test against upland field weeds (soil treatment test); set-up: key to Soil treatment herbicidal activity, Sorghum: 0 (no control); 100 (complete control); details: 50 g ai/ha, scale 0 (no control) to 100 (complete control)
# Summary of the method: (§2)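 Pre-emergence soil surface spray, day after sowing, into sandy loam pots with fertilizer; compounds at 50 or 75 g a.i./ha in 50% acetone, 0.1% Tween-20. Greenhouse at 30±5 °C, 14/10 h light/dark; visual control rated 0–100 against untreated after 14 days (21 if needed).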
# [9] = system: barnyard grass; test: Herbicidal activity test against upland field weeds (foliar treatment test); set-up: key to Foliar treatment herbicidal activity, barnyard grass: 0 (no control); 100 (complete control); details: 50 g ai/ha, scale 0-100
# Summary of the method: as §1
# [10] = system: indian jointvetch; test: Herbicidal activity test against upland field weeds (soil treatment test); set-up: key to Soil treatment herbicidal activity, Indian jointvetch: 0 (no control); 100 (complete control); details: 50 g ai/ha, scale 0 (no control) to 100 (complete control)
# Summary of the method: as §2
# [11] = system: fall panicum; test: as above; set-up: key to Soil treatment herbicidal activity, Fall panicum: 0 (no control); 100 (complete control); details: 50 g ai/ha, scale 0 (no control) to 100 (complete control)
# Summary of the method: as §2
# [12] = system: quack grass; test: as above; set-up: key to Soil treatment herbicidal activity, quack grass: 0 (no control); 100 (complete control); details: 50 g ai/ha, scale 0 (no control) to 100 (complete control)
# Summary of the method: as §2
# [13] = system: barnyard grass; test: as above; set-up: key to Soil treatment herbicidal activity, barnyard grass: 0 (no control); 100 (complete control); details: 50 g ai/ha, scale 0 (no control) to 100 (complete control)
# Summary of the method: as §2
# [14] = system: bindweed; test: as above; set-up: key to Soil treatment herbicidal activity, Bindweed: 0 (no control); 100 (complete control); details: 50 g ai/ha, scale 0 (no control) to 100 (complete control)
# Summary of the method: as §2
# [15] = system: crabgrass; test: as above; set-up: key to Soil treatment herbicidal activity, Crabgrass: 0 (no control); 100 (complete control); details: 50 g ai/ha, scale 0 (no control) to 100 (complete control)
# Summary of the method: as §2
# [16] = system: velvetleaf; test: Herbicidal activity test against upland field weeds (foliar treatment test); set-up: key to Foliar treatment herbicidal activity, velvet leaf: 0 (no control); 100 (complete control); details: 50 g ai/ha, scale 0-100
# Summary of the method: as §1
# [17] = system: black nightshade; test: Herbicidal activity test against upland field weeds (soil treatment test); details: 50 g ai/ha, scale 0 (no control) to 100 (complete control)
# Summary of the method: as §2
# [18] = system: sorghum; test: Herbicidal activity test against upland field weeds (foliar treatment test); set-up: key to Foliar treatment herbicidal activity, Sorghum: 0 (no control); 100 (complete control); details: 50 g ai/ha, scale 0-100
# Summary of the method: as §1
# [19] = system: quack grass; test: as above; set-up: key to Foliar treatment herbicidal activity, quack grass: 0 (no control); 100 (complete control); details: 50 g ai/ha, scale 0-100
# Summary of the method: as §1
# [20] = system: velvetleaf; test: Herbicidal activity test against upland field weeds (soil treatment test); set-up: key to Soil treatment herbicidal activity, velvet leaf: 0 (no control); 100 (complete control); details: 50 g ai/ha, scale 0 (no control) to 100 (complete control)
# Summary of the method: as §2
SMILES,"Foliar treatment herbicidal activity, Cocklebur [2]","Foliar treatment herbicidal activity, Fall panicum [3]","Foliar treatment herbicidal activity, Bindweed [4]","Foliar treatment herbicidal activity, Indian jointvetch [5]","Soil treatment herbicidal activity, Cocklebur [6]","Foliar treatment herbicidal activity, Crabgrass [7]","Soil treatment herbicidal activity, Sorghum [8]","Foliar treatment herbicidal activity, barnyard grass [9]","Soil treatment herbicidal activity, Indian jointvetch [10]","Soil treatment herbicidal activity, Fall panicum [11]","Soil treatment herbicidal activity, quack grass [12]","Soil treatment herbicidal activity, barnyard grass [13]","Soil treatment herbicidal activity, Bindweed [14]","Soil treatment herbicidal activity, Crabgrass [15]","Foliar treatment herbicidal activity, velvet leaf [16]","Foliar treatment herbicidal activity, Sorghum [18]","Foliar treatment herbicidal activity, quack grass [19]","Soil treatment herbicidal activity, velvet leaf [20]",further results
"Cn1nnc(C[S+]([O-])Cc2nc(C(F)F)ccc2C(=O)Nc2nnnn2C)n1 (stereo not shown) [Compound No. 2-111, 6-(difluoromethyl)-N-(1-methyl-1H-tetrazol-1-yl)-2-((((2-methyl-2H-tetrazol-5-yl)methyl)sulfinyl)methyl)nicotinamide]",100,95,98,95,0,98,0,100,0,0,0,0,0,0,80,70,0,0,"Foliar treatment herbicidal activity, black nightshade [1]: 100; Soil treatment herbicidal activity, black nightshade [17]: 90"
"Cn1nnc(CN(OCc2ccccc2)c2nc(C(F)(F)F)ccc2C(=O)Nc2nnnn2C)n1 [Compound No. 2-29, 2-((benzyloxy)((2-methyl-2H-tetrazol-5-yl)methyl)amino)-N-(1-methyl-1H-tetrazol-5-yl)-6-(trifluoromethyl)nicotinamide]",0,0,0,0,0,0,0,0,0,0,0,0,0,0,0,0,0,0,pest or weed control at 50 g/ha ([1]; Solanum nigrum): 20%; pest or weed control at 50 g/ha ([17]; Solanum nigrum): 20%
